Test results reported in patent publication US6833374B2, “Dihydropyrazolo[3,4-d]thieno[2,3-B]pyridinone inhibitors of B7-1” (Wyeth, priority 2002, dated 2004).

Biological target: T1, B7-1/CD28 (Homo sapiens, UniProt P33681)
T1 sequence (P33681 35-242 limits assumed): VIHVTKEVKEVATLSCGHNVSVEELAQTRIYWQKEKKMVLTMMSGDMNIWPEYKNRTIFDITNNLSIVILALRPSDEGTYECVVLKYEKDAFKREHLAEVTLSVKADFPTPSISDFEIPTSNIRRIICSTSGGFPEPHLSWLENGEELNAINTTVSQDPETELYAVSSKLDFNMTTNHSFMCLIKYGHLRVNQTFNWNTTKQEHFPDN
Assay: CD28/B7-1 ELISA (B7-1/CD28 binding inhibition)
Conditions: CD28-Fc coated wells, B7-1-Fc-biotin detection complex
Method: Evaluation of B7-1/CD28 Binding Inhibition for Test Compounds
Wells are coated with 300 ng CD28-Fc in carbonate buffer (pH 9.4) overnight at 4° C., blocked with 1% bovine serum albumin in tris-buffered saline (TBS) for 1 h at 22° C. and washed 3 times in TBS prior to assay. The detection complex is formed as follows: B7-1-Fc-biotin, prepared using NHS-LC-biotin (Pierce #21335) according to the manufacturers instructions (4.1 moles biotin/mole Fc), is added at 0.8 ug/ml to streptavidin-alkaline phosphatase (Caltag Sa1008 at 1:1000 in TBS. Gradient dilutions of test compound in dimethylsulfoxide (1% final) are added to this complex and incubated 30 min. at 22° C. Detection complex (+/− inhibitors) is then added to the CD28 coated wells for 25 min. at 22° C., washed 5 times with TBS, developed with the calorimetric substrate pNPP (Pierce #34045) in diethanolamine/MgCl2 buffer (pH 9.5) and read at 405 nm. The inhibition constant (IC50) is calculated by subtracting the background binding and comparing to uninhibited (DMSO alone) controls. The inhibition constant represents the concentration of test compound required to achieve 50% inhibition.

Structure (SMILES)	IC50 [nM]
O=c1c2c(-c3cccc(C(F)(F)F)c3)nc3sccc3c2[nH]n1-c1ccc(F)cc1 [Example 3, 2-(4-Fluorophenyl)-4-[3-(trifluoromethyl)phenyl]1,2-dihydro-3H-pyrazolo[3,4-d]thieno[2,3-b]pyridin-3-one]	600
O=c1c2c(-c3cccc(C(F)(F)F)c3)nc3sccc3c2[nH]n1-c1ccc(Cl)cc1 [Example 4, 2-(4-chlorophenyl)-4-[3-(trifluoromethyl)phenyl]-1,2-dihydro-3H-pyrazolo-[3,4-d]thieno[2,3-b]pyridin-3-one]	500
